Results reported in US12522598B2, “3-(2-(heteroaryl)-pyridin-4-yl)-5-(trifluoromethyl)-1,2,4-oxadiazole derivatives as HDAC6 inhibitors” (ORYZON GENOMICS, S.A., priority 2019, dated 2026).
Counter-ions that a name gives are not always drawn.

Biological target: T1, HDAC6 (Homo sapiens, UniProt Q9UBN7)
T1 construct: purchased BPS Bioscience 50006
T1 sequence (Q9UBN7 1-1215): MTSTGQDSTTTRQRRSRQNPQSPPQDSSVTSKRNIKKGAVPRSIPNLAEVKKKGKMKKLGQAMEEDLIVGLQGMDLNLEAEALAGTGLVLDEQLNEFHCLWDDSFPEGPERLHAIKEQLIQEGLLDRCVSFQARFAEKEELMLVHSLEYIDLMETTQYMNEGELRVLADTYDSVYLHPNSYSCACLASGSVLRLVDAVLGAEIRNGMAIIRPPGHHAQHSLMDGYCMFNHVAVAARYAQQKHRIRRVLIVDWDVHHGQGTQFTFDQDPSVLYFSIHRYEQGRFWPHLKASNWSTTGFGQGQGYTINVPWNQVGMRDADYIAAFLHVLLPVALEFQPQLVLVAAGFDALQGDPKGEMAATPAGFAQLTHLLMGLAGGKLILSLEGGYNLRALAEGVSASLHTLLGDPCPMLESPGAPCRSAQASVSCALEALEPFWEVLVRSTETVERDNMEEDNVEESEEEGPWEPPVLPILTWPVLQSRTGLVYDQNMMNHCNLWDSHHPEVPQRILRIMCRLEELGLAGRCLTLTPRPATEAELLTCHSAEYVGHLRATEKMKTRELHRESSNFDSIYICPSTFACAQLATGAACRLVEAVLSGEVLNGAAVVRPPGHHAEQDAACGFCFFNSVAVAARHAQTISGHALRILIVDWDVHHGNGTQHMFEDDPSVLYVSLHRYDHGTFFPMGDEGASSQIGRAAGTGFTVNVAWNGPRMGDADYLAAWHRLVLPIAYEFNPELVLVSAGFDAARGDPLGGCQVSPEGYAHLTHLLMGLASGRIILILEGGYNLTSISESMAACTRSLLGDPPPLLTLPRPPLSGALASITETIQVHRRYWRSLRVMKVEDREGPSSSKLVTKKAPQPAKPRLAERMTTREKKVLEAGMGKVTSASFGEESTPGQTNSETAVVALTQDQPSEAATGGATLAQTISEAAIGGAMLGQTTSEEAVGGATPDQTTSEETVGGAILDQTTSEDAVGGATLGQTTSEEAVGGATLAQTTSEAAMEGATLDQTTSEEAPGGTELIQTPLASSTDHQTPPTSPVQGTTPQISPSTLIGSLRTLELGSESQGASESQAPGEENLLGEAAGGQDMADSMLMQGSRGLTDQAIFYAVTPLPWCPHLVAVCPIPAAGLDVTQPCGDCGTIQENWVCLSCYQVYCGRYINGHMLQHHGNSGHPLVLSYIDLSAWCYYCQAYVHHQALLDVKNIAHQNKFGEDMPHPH
Test: HDAC6 enzyme inhibition assay (fluorimetric)
Assay type: biochemical
Conditions: 3 hours preincubation with enzyme, fraction of positive control; for inhibition at 0.1 µM: read-out: HDAC6 % inh @ 0.1 μM; for inhibition at 0.3 µM: read-out: HDAC6 % inh @ 0.3 μM; for inhibition at 1 µM: 1 μM test compound, read-out: HDAC6 % inh @ 1 μM
Method: A fluorimetric assay was used to determine the biochemical activity of the inhibitors on HDAC6 in 96-Well Half Area Black Microplates (Corning #3686)+TopSeal-A Black Sealing Film (Perkin Elmer #6050173). Test compounds were dissolved in DMSO. Half-log serial dilutions of test compounds were prepared in DMSO and then diluted 1:10 in assay buffer (BPS Bioscience #50031).
2.5 μL of enzyme (BPS Bioscience #50006) was incubated with 2.5 μL of test compounds for 3 hours in assay buffer with 0.1 mg/mL Bovine Serum Albumin (Sigma-Aldrich #A7030) at 21° C. in 22.5 μL total volume. The enzymatic reaction was started with the addition of 2.5 μL of a fluorogenic acetylated peptide substrate (BPS Bioscience #50037). The final concentration of enzyme and substrate in the reaction were 8.8 nM and 9 μM, respectively. After 45 minutes of incubation at 37° C., the addition of 25 μL of a development solution (BPS
Bioscience #50030) releases a fluorophore whose amount is proportional to the amount of the deacetylated product. Fluorescence intensity was measured after 15 minutes incubation at 21° C. with a Tecan Infinite F200 microplate reader (excitation 360 nm-emission 460 nm).
The negative control (background) was represented by the reaction mix in the absence of the enzyme (with 0.1% DMSO), while the positive control of deacetylase activity was obtained in the absence of test compounds (with 0.1% DMSO) after background subtraction. Percentage of inhibition was calculated as a fraction of the positive control.

Row | SMILES | HDAC6 % inh @ 0.1 μM (0.1 μM test compound) | HDAC6 % inh @ 0.3 μM (0.3 μM test compound) | inhibition at 0.1 µM (0.1 μM test compound) | inhibition at 0.3 µM (0.3 μM test compound) | inhibition at 1 µM
1 | Cn1c(C(=O)N2CCOCC2)cc2cc(-c3cc(-c4noc(C(F)(F)F)n4)ccn3)ncc21 [Example 1, (1-Methyl-5-(4-(5-(trifluoromethyl)-1,2,4-oxadiazol-3-yl)pyridin-2-yl)-1H-pyrrolo[2,3-c]pyridin-2-yl)(morpholino)methanone] | 59% | 87% |  |  | 
2 | CN(C)CCCN(C)C(=O)c1cc2cc(-c3cc(-c4noc(C(F)(F)F)n4)ccn3)ncc2n1C [Example 1a, N-(3-(Dimethylamino)propyl)-N,1-dimethyl-5-(4-(5-(trifluoromethyl)-1,2,4-oxadiazol-3-yl)pyridin-2-yl)-1H-pyrrolo[2,3-c]pyridine-2-carboxamide] |  |  | 74% | 91% | 
3 | CN(CCO)C(=O)c1cc2cc(-c3cc(-c4noc(C(F)(F)F)n4)ccn3)ncc2n1C [Example 1b, N-(2-Hydroxyethyl)-N,1-dimethyl-5-(4-(5-(trifluoromethyl)-1,2,4-oxadiazol-3-yl)pyridin-2-yl)-1H-pyrrolo[2,3-c]pyridine-2-carboxamide] |  |  | 72% | 88% | 95%
4 | CN1CCC(CN(C)C(=O)c2cc3cc(-c4cc(-c5noc(C(F)(F)F)n5)ccn4)ncc3n2C)CC1 [Example 1c, N,1-Dimethyl-N-((l-methylpiperidin-4-yl)methyl)-5-(4-(5-(trifluoromethyl)-1,2,4-oxadiazol-3-yl)pyridin-2-yl)-1H-pyrrolo[2,3-c]pyridine-2-carboxamide] |  |  | 85% | 94% | 98%
5 | Cn1c(C(=O)N(CCO)CCO)cc2cc(-c3cc(-c4noc(C(F)(F)F)n4)ccn3)ncc21 [Example 1d, N,N-Bis(2-hydroxyethyl)-1-methyl-5-(4-(5-(trifluoromethyl)-1,2,4-oxadiazol-3-yl)pyridin-2-yl)-1H-pyrrolo[2,3-c]pyridine-2-carboxamide] |  |  | 79% | 91% | 96%
6 | COCCCn1nc(-c2cc(-c3noc(C(F)(F)F)n3)ccn2)c2ncccc21 [Example 1e, 3-(2-(1-(3-Methoxypropyl)-1H-pyrazolo[4,3-b]pyridin-3-yl)pyridin-4-yl)-5-(trifluoromethyl)-1,2,4-oxadiazole] |  |  | 68% | 88% | 95%
7 | FC(F)(F)c1nc(-c2ccnc(-c3nn(CC4CCOCC4)c4cccnc34)c2)no1 [Example 1f, 3-(2-(1-((Tetrahydro-2H-pyran-4-yl)methyl)-1H-pyrazolo[4,3-b]pyridin-3-yl)pyridin-4-yl)-5-(trifluoromethyl)-1,2,4-oxadiazole] |  |  | 54% | 81% | 94%
8 | COCCn1nc(-c2cc(-c3noc(C(F)(F)F)n3)ccn2)c2nccnc21 [Example 1g, 3-(2-(1-(2-Methoxyethyl)-1H-pyrazolo[3,4-b]pyrazin-3-yl)pyridin-4-yl)-5-(trifluoromethyl)-1,2,4-oxadiazole] |  |  | 28% | 56% | 80%
9 | CN(CC1CC1)C(=O)c1cc2cc(-c3cc(-c4noc(C(F)(F)F)n4)ccn3)ncc2n1C [Example 2, N-(Cyclopropylmethyl)-N,1-dimethyl-5-(4-(5-(trifluoromethyl)-1,2,4-oxadiazol-3-yl)pyridin-2-yl)-1H-pyrrolo[2,3-c]pyridine-2-carboxamide hydrochloride] |  |  | 75% | 92% | 96%
10 | COCCN(C)C(=O)c1cc2cc(-c3cc(-c4noc(C(F)(F)F)n4)ccn3)ncc2n1C [Example 2a, N-(2-Methoxyethyl)-N,1-dimethyl-5-(4-(5-(trifluoromethyl)-1,2,4-oxadiazol-3-yl)pyridin-2-yl)-1H-pyrrolo[2,3-c]pyridine-2-carboxamide hydrochloride] |  |  | 66% | 89% | 97%
11 | CCN(C)C(=O)c1cc2cc(-c3cc(-c4noc(C(F)(F)F)n4)ccn3)ncc2n1C [Example 2b, N-Ethyl-N,1-dimethyl-5-(4-(5-(trifluoromethyl)-1,2,4-oxadiazol-3-yl)pyridin-2-yl)-1H-pyrrolo[2,3-c]pyridine-2-carboxamide hydrochloride] |  |  | 89% | 95% | 96%
12 | COCCN(CCOC)C(=O)c1cc2cc(-c3cc(-c4noc(C(F)(F)F)n4)ccn3)ncc2n1C [Example 2c, N,N-Bis(2-methoxyethyl)-1-methyl-5-(4-(5-(trifluoromethyl)-1,2,4-oxadiazol-3-yl)pyridin-2-yl)-1H-pyrrolo[2,3-c]pyridine-2-carboxamide hydrochloride] |  |  | 71% | 91% | 97%
13 | C[C@H]1COCCN1C(=O)c1cc2cc(-c3cc(-c4noc(C(F)(F)F)n4)ccn3)ncc2n1C [Example 2d, (S)-(1-Methyl-5-(4-(5-(trifluoromethyl)-1,2,4-oxadiazol-3-yl)pyridin-2-yl)-1H-pyrrolo[2,3-c]pyridin-2-yl)(3-methylmorpholino)methanone hydrochloride] |  |  | 64% | 86% | 96%
14 | Cn1c(C(=O)N2CCC(O)C2)cc2cc(-c3cc(-c4noc(C(F)(F)F)n4)ccn3)ncc21 (stereo not shown) [Example 2e, (3-Hydroxypyrrolidin-1-yl)(1-methyl-5-(4-(5-(trifluoromethyl)-1,2,4-oxadiazol-3-yl)pyridin-2-yl)-1H-pyrrolo[2,3-c]pyridin-2-yl)methanone hydrochloride] |  |  | 78% | 92% | 97%
15 | Cn1c(C(=O)N2CC[C@@H](O)C2)cc2cc(-c3cc(-c4noc(C(F)(F)F)n4)ccn3)ncc21 [Example 2g, (R)-(3-Hydroxypyrrolidin-1-yl)(1-methyl-5-(4-(5-(trifluoromethyl)-1,2,4-oxadiazol-3-yl)pyridin-2-yl)-1H-pyrrolo[2,3-c]pyridin-2-yl)methanone hydrochloride] |  |  | 78% | 86% | 97%
16 | Cn1c(C(=O)N2CC[C@H](O)C2)cc2cc(-c3cc(-c4noc(C(F)(F)F)n4)ccn3)ncc21 [Example 2h, (S)-(3-Hydroxypyrrolidin-1-yl)(1-methyl-5-(4-(5-(trifluoromethyl)-1,2,4-oxadiazol-3-yl)pyridin-2-yl)-1H-pyrrolo[2,3-c]pyridin-2-yl)methanone hydrochloride] |  |  | 65% | 80% | 94%
17 | Cn1c(C(=O)N2CCOCC2)cc2cc(-c3cc(-c4noc(C(F)(F)F)n4)ccn3)ncc21 [Example 3, (1-Methyl-5-(4-(5-(trifluoromethyl)-1,2,4-oxadiazol-3-yl)pyridin-2yl)-1H-pyrrolo[2,3-c]pyridin-2-yl)(morpholino)methanone mesylate] |  |  | 59% | 84% | 93%
